Patent US20120202690A1, “HERBICIDAL COMPOUNDS” (SYNGENTA LIMITED, priority 2009, published 2012)

How the values were obtained:
Assay type in all cases: in vivo
[1] = system: Alopecurus myosuroides (ALOMY); assay: Post-emergence biological efficacy, glasshouse, 500 or 1000 g/ha, evaluated after 13 days (100=total damage to plant; 0=no damage to plant)
Method in brief: (§1)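 Standard soil, potted from seed; post-emergence treatment; glasshouse 24/16° C. (day/night), 14 h light, 65% humidity; watering twice daily.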

Setaria faberi (SETFA) [2] = assay: as above
Method in brief: as §1

[3] = system: Amaranthus retroflexus (AMARE); assay: as above
Method in brief: as §1

Solanum nigrum (SOLNI) [4] = assay: as above
Method in brief: as §1

[5] = system: Echinochloa crusgaffi (ECHCG); assay: as above
Method in brief: as §1

[6] = system: Ipomoea hederaceae (IPOHE); assay: as above
Method in brief: as §1

[7] = system: Alopecurus myosuroides (ALOMY); assay: Pre-emergence biological efficacy, glasshouse, 1000 g/ha, evaluated after 13 days (100=total damage to plant; 0=no damage to plant)
Method in brief: (§2)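 Standard soil in pots received the seeds. Growth took place in a glasshouse held at 24/16° C. day/night, 65% humidity and 14 h of light.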

[8] = system: Echinochloa crus-galli (ECHCG); assay: as above
Method in brief: as §2

Setaria faberi (SETFA) [9] = assay: as above
Method in brief: as §2

[10] = system: Amaranthus retroflexus (AMARE); assay: as above
Method in brief: as §2

Solanum nigrum (SOLNI) [11] = assay: as above
Method in brief: as §2

[12] = system: Ipomoea hederaceae (IPOHE); assay: as above
Method in brief: as §2

[13] = Alopecurus myosuroides, 312 h, rate 1,000 g/ha, read-out: Percentage damage caused to weed species, post-emergence, ALOMY
[14] = Setaria faberi, 312 h, rate 1,000 g/ha, read-out: Percentage damage caused to weed species, post-emergence, SETFA
[15] = Amaranthus retroflexus, 312 h, rate 1,000 g/ha, read-out: Percentage damage caused to weed species, post-emergence, AMARE
[16] = Solanum nigrum, 312 h, rate 1,000 g/ha, read-out: Percentage damage caused to weed species, post-emergence, SOLNI
[17] = Echinochloa, 312 h, rate 1,000 g/ha, read-out: Percentage damage caused to weed species, post-emergence, ECHCG
[18] = Ipomoea, 312 h, rate 1,000 g/ha, read-out: Percentage damage caused to weed species, post-emergence, IPOHE
[19] = Alopecurus myosuroides, 312 h, rate 1,000 g/ha, read-out: Percentage damage caused to weed species, pre-emergence, ALOMY
[20] = Echinochloa crus-galli, 312 h, rate 1,000 g/ha, read-out: Percentage damage caused to weed species, pre-emergence, ECHCG
[21] = Setaria faberi, 312 h, rate 1,000 g/ha, read-out: Percentage damage caused to weed species, pre-emergence, SETFA
[22] = Amaranthus retroflexus, 312 h, rate 1,000 g/ha, read-out: Percentage damage caused to weed species, pre-emergence, AMARE
[23] = Solanum nigrum, 312 h, rate 1,000 g/ha, read-out: Percentage damage caused to weed species, pre-emergence, SOLNI
[24] = Ipomoea, 312 h, rate 1,000 g/ha, read-out: Percentage damage caused to weed species, pre-emergence, IPOHE

SMILES	pest or weed control at 1000 g/ha [1, 13]	pest or weed control at 1000 g/ha (Setaria faberi (SETFA) [2]; [14])	pest or weed control at 1000 g/ha [3, 15]	pest or weed control at 1000 g/ha (Solanum nigrum (SOLNI) [4]; [16])	pest or weed control at 1000 g/ha [5, 17]	pest or weed control at 1000 g/ha [6, 18]	pest or weed control at 1000 g/ha [7, 19]	pest or weed control at 1000 g/ha [8, 20]	pest or weed control at 1000 g/ha (Setaria faberi (SETFA) [9]; [21])	pest or weed control at 1000 g/ha [10, 22]	pest or weed control at 1000 g/ha (Solanum nigrum (SOLNI) [11]; [23])	pest or weed control at 1000 g/ha [12, 24]	other results
CCOCCOC(=O)c1nc(-c2ccc(Cl)c(OC)c2F)cc2[nH]cc(C)c12 [Compound 22-82, 6-(4-Chloro-2-fluoro-3-methoxyphenyl)-4-[(2-ethoxy)-ethoxycarbonyl]-3-methyl-1H-pyrrolo[3,2-c]pyridine]	20%	40%	80%	90%	20%	40%	10%	20%	0%	70%	90%	90%	
Cc1c[nH]c2nc(C3CC3)nc(C(=O)O)c12 [Compound 1-3, 4-Carboxy-2-cyclopropyl-5-methyl-7H-pyrrolo[2,3-d]pyrimidine]	0%	0%	100%	80%	0%	50%	0%	0%	10%	50%	20%	100%	
O=C(O)c1nc(Cl)nc2[nH]ccc12 [Compound 1-121, 4-carboxy-2-chloro-7H-pyrrolo[2,3-d]pyrimidine]	0%	0%	0%	10%	0%	0%	0%	0%	0%	0%	0%	0%	
CCCCCC(C)OC(=O)c1nc(-c2ccc(Cl)c(OC)c2F)nc2[nH]cc(C)c12 (stereo not drawn) [Compound 1-79, 2-(4-Chloro-2-fluoro-3-methoxyphenyl)-4-(hept-2-yloxycarbonyl)-5-methyl-7H-pyrrolo[2,3-d]pyrimidine]	0%	0%	10%	10%	0%	20%	0%	0%	0%	0%	0%	0%	
COC(=O)c1nc(-c2ccc(Cl)c(OC)c2F)cc2c1c(C)cn2C(=O)OC [Compound 38-64, 6-(4-Chloro-2-fluoro-3-methoxyphenyl)-1,4-di(methoxycarbonyl)-3-methyl-1H-pyrrolo[3,2-c]pyridine]	10%	10%	0%	10%	0%	20%	0%	0%	0%	0%	0%	0%	
CCCCCCCCOC(=O)c1nc(-c2ccc(Cl)c(OC)c2F)cc2[nH]cc(C)c12 [Compound 22-77]													Percentage damage caused to weed species, post-emergence, ALOMY ([1]; rate 1,000 g/ha): 10%; Percentage damage caused to weed species, post-emergence, SETFA (Setaria faberi (SETFA) [2]; rate 1,000 g/ha): 0%; Percentage damage caused to weed species, post-emergence, AMARE ([3]; rate 1,000 g/ha): 70%; Percentage damage caused to weed species, post-emergence, SOLNI (Solanum nigrum (SOLNI) [4]; rate 1,000 g/ha): 90%; Percentage damage caused to weed species, post-emergence, ECHCG ([5]; rate 1,000 g/ha): 0%; Percentage damage caused to weed species, post-emergence, IPOHE ([6]; rate 1,000 g/ha): 30%; Percentage damage caused to weed species, pre-emergence, ALOMY ([7]; rate 1,000 g/ha): 10%; Percentage damage caused to weed species, pre-emergence, ECHCG ([8]; rate 1,000 g/ha): 0%; Percentage damage caused to weed species, pre-emergence, SETFA (Setaria faberi (SETFA) [9]; rate 1,000 g/ha): 20%; Percentage damage caused to weed species, pre-emergence, AMARE ([10]; rate 1,000 g/ha): 20%; Percentage damage caused to weed species, pre-emergence, SOLNI (Solanum nigrum (SOLNI) [11]; rate 1,000 g/ha): 80%; Percentage damage caused to weed species, pre-emergence, IPOHE ([12]; rate 1,000 g/ha): 90%
COC(=O)c1nc(C2CC2)nc2[nH]c(C)cc12 [Compound 1-6, 2-cyclopropyl-4-methoxycarbonyl-6-methyl-7H-pyrrolo[2,3-d]pyrimidine]	0%	0%	0%	0%	0%	0%	0%	0%	0%	0%	0%	0%	
COc1c(Cl)ccc(-c2nc(C(=O)O)c3c(C)cn(C(C)c4ccccc4)c3n2)c1F (stereo not drawn) [Compound 7-63, 4-Carboxy-2-(4-chloro-2-fluoro-3-methoxyphenyl)-5-methyl-7-(1-phenyl-ethyl)-7H-pyrrolo[2,3-d]pyrimidine]	0%	10%	20%	60%	0%	10%	0%	0%	0%	0%	0%	0%	
C=C1c2c(nc(-c3ccc(Cl)c(OC)c3F)nc2C(=O)OC)NCC1(C)C [Compound 71-180, 2-(4-Chloro-2-fluoro-3-methoxyphenyl)-6,6-dimethyl-4-methoxycarbonyl-5-methylene-5,6,7,8-tetrahydro-pyrido[2,3-d]pyrimidine]													pest or weed control at 500 g/ha ([1]; Alopecurus myosuroides, 312 h, rate 500 g/ha, read-out: Percentage damage caused to weed species, post-emergence, ALOMY): 0%; pest or weed control at 500 g/ha (Setaria faberi (SETFA) [2]; Setaria faberi, 312 h, rate 500 g/ha, read-out: Percentage damage caused to weed species, post-emergence, SETFA): 0%; pest or weed control at 500 g/ha ([3]; Amaranthus retroflexus, 312 h, rate 500 g/ha, read-out: Percentage damage caused to weed species, post-emergence, AMARE): 0%; pest or weed control at 500 g/ha (Solanum nigrum (SOLNI) [4]; Solanum nigrum, 312 h, rate 500 g/ha, read-out: Percentage damage caused to weed species, post-emergence, SOLNI): 20%; pest or weed control at 500 g/ha ([5]; Echinochloa, 312 h, rate 500 g/ha, read-out: Percentage damage caused to weed species, post-emergence, ECHCG): 0%; pest or weed control at 500 g/ha ([6]; Ipomoea, 312 h, rate 500 g/ha, read-out: Percentage damage caused to weed species, post-emergence, IPOHE): 40%; pest or weed control at 500 g/ha ([7]; Alopecurus myosuroides, 312 h, rate 500 g/ha, read-out: Percentage damage caused to weed species, pre-emergence, ALOMY): 0%; pest or weed control at 500 g/ha ([8]; Echinochloa crus-galli, 312 h, rate 500 g/ha, read-out: Percentage damage caused to weed species, pre-emergence, ECHCG): 0%; pest or weed control at 500 g/ha (Setaria faberi (SETFA) [9]; Setaria faberi, 312 h, rate 500 g/ha, read-out: Percentage damage caused to weed species, pre-emergence, SETFA): 0%; pest or weed control at 500 g/ha ([10]; Amaranthus retroflexus, 312 h, rate 500 g/ha, read-out: Percentage damage caused to weed species, pre-emergence, AMARE): 0%; pest or weed control at 500 g/ha (Solanum nigrum (SOLNI) [11]; Solanum nigrum, 312 h, rate 500 g/ha, read-out: Percentage damage caused to weed species, pre-emergence, SOLNI): 0%; pest or weed control at 500 g/ha ([12]; Ipomoea, 312 h, rate 500 g/ha, read-out: Percentage damage caused to weed species, pre-emergence, IPOHE): 0%
COC(=O)c1nc(C2CC2)nc2c1NC(c1ccccc1)C(c1ccccc1)N2 (stereo not drawn) [Compound 91-44, 2-cyclopropyl-6,7-diphenyl-4-methoxycarbonyl-5,6,7,8-tetrahydropteridine]	20%	50%	70%	90%	50%	60%	30%	10%	0%	70%	30%	20%	
